Biological target: human NaV 1.7 (Homo sapiens, UniProt Q15858)
Experiment: E-VIPR optical membrane potential assay with electrical stimulation
Type: cell-based
Settings: sodium channel inhibition; read-out: Binned Activity Data (IC50)
Source text: Assays for Detecting and Measuring NaV Inhibition Properties of Compound E-VIPR Optical Membrane Potential Assay Method with Electrical Stimulation
Sodium channels are voltage-dependent proteins that can be activated by inducing membrane voltage changes by applying electric fields. The electrical stimulation instrument and methods of use are described in Ion Channel Assay Methods PCT/US01/21652, herein incorporated by reference and are referred to as E-VIPR. The instrument comprises a microtiter plate handler, an optical system for exciting the coumarin dye while simultaneously recording the coumarin and oxonol emissions, a waveform generator, a current- or voltage-controlled amplifier, and a device for inserting electrodes in well. Under integrated computer control, this instrument passes user-programmed electrical stimulus protocols to cells within the wells of the microtiter plate.
24 hours before the assay on E-VIPR, HEK cells expressing human NaV subtype, like NaV 1.7, are seeded in 384-well poly-lysine coated plates at 15,000-20,000 cells per well. Other subtypes are performed in an analogous mode in a cell line expressing the NaV of interest. HEK cells are grown in media (exact composition is specific to each cell type and NaV subtype) supplemented with 10% FBS (Fetal Bovine Serum, qualified; GibcoBRL #16140-071) and 1% Pen-Strep (Penicillin-Streptomycin; GibcoBRL #15140-122). Cells are grown in vented cap flasks, in 90% humidity and 10% CO2, to 100% confluence. They are usually split by trypsinization 1:10 or 1:20, depending on scheduling needs, and grown for 2-3 days before the next split.
Bath1 buffer. Glucose 10 mM (1.8 g/L), Magnesium Chloride (Anhydrous), 1 mM (0.095 g/L), Calcium Chloride, 2 mM (0.222 g/L), HEPES 10 mM (2.38 g/L), Potassium Chloride, 4.5 mM (0.335 g/L), Sodium Chloride 160 mM (9.35 g/L).
Hexyl Dye Solution: Bath1 Buffer+0.5% β-cyclodextrin (make this prior to use, Sigma #C4767), 8 μM CC2-DMPE+2.5 μM DiSBAC6(3). To make the solution Add volume of 10% Pluronic F127 stock equal to volumes of CC2-DMPE+DiSBAC6(3). The order of preparation is first mix Pluronic and CC2-DMPE, then add DiSBAC6(3) while vortexing, then add Bath1+β-Cyclodextrin.
1) Pre-spot compounds (in neat DMSO) into compound plates. Vehicle control (neat DMSO), the positive control (20 mM DMSO stock tetracaine, 125 μM final in assay) and test compounds are added to each well at 160× desired final concentration in neat DMSO. Final compound plate volume will be 80 μL (80-fold intermediate dilution from 1 μL DMSO spot; 160-fold final dilution after transfer to cell plate). Final DMSO concentration for all wells in assay is 0.625%.
2) Prepare Hexyl Dye Solution.
3) Prepare cell plates. On the day of the assay, medium is aspirated and cells are washed three times with 100 μL of Bath1 Solution, maintaining 25 μL residual volume in each well.
4) Dispense 25 μL per well of Hexyl Dye Solution into cell plates. Incubate for 20-35 minutes at room temp or ambient conditions.
5) Dispense 80 μL per well of Bath1 into compound plates. Acid Yellow-17 (1 mM) is added and Potassium Chloride can be altered from 4.5 to 20 mM depending on the NaV subtype and assay sensitivity.
6) Wash cell plates three times with 100 μL per well of Bath1, leaving 25 μL of residual volume. Then transfer 25 uL per well from Compound Plates to Cell Plates. Incubate for 20-35 minutes at room temp/ambient condition
7) Read Plate on E-VIPR. Use the current-controlled amplifier to deliver stimulation wave pulses for typically 9 seconds and a scan rate of 400 Hz. A pre-stimulus recording is performed for 0.5 seconds to obtain the un-stimulated intensities baseline. The stimulatory waveform is applied for 9 seconds followed by 0.5 seconds of post-stimulation recording to examine the relaxation to the resting state. […]

Sequence of human NaV 1.7 (Q15858 whole entry): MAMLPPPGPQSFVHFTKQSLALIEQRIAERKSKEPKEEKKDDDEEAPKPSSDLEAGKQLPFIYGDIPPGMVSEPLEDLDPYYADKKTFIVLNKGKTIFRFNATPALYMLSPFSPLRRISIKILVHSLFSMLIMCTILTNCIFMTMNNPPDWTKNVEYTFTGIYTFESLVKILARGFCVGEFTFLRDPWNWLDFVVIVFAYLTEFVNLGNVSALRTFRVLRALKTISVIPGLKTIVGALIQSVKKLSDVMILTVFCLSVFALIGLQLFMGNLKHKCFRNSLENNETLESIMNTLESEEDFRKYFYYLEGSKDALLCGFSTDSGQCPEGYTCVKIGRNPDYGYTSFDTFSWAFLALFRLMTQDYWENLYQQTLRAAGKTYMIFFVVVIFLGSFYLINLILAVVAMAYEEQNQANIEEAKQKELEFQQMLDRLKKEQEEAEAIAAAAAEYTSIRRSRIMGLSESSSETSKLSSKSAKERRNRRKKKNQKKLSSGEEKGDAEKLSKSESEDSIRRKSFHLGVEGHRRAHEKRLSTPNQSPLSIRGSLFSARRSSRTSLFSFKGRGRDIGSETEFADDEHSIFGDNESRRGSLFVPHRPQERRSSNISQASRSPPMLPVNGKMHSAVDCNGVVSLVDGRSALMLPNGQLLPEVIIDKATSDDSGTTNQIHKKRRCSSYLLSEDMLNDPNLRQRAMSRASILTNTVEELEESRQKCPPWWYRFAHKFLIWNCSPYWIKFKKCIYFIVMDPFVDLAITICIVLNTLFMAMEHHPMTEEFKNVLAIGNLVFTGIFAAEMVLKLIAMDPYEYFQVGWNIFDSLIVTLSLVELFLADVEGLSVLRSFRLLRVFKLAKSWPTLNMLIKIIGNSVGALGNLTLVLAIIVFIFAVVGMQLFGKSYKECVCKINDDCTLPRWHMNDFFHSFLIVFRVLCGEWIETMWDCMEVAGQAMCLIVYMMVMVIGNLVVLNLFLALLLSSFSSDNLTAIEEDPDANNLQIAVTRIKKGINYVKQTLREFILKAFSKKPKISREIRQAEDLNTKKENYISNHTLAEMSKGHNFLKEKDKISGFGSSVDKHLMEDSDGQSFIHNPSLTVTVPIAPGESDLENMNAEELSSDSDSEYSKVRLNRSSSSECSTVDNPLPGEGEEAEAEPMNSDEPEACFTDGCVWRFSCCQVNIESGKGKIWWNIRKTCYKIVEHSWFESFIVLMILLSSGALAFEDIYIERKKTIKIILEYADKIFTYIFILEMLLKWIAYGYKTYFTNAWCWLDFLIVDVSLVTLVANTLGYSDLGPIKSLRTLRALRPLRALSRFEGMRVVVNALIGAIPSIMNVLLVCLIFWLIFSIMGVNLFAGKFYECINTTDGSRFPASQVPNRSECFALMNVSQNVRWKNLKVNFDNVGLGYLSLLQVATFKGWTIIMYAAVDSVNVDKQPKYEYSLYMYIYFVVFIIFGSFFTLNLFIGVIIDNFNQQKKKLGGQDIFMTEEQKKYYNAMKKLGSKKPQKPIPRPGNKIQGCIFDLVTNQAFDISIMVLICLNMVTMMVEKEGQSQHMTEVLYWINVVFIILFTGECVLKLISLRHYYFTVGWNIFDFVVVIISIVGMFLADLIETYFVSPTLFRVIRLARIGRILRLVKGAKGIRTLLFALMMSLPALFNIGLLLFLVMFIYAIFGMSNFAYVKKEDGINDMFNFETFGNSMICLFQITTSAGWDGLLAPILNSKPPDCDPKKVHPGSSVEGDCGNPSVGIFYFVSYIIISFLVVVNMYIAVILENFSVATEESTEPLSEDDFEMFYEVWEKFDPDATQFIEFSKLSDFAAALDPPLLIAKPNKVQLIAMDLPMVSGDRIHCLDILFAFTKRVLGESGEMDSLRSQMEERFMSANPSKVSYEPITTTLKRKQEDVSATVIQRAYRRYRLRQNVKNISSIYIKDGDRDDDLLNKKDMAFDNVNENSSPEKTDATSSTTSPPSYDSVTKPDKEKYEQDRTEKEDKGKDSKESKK

SMILES	IC50 [nM]
Cc1cc(OC(C)C)ccc1C(=O)N1CCC2(CC1)Oc1ccccc1-c1c2cnn1C [Compound 158]	≤ 2000
Cc1ccc(C(=O)N2CCC3(CC2)Oc2ccccc2-n2cccc23)cc1C [Compound 159]	≤ 2000
Cn1ncc2c1-c1ccccc1OC21CCN(C(=O)c2cccc3c2CCO3)CC1 [Compound 160]	> 5000
COc1ccc(C(=O)N2CCC3(CC2)Oc2ccccc2-n2cc(C)cc23)cc1C(F)(F)F [Compound 161]	≤ 2000
COc1ccc(C(=O)N2CCC3(CC2)Oc2ccccc2-n2c(C(F)(F)F)ccc23)c(OC)c1OC [Compound 164]	≤ 2000
COc1cc(C(=O)N2CCC3(CC2)Oc2cccnc2-n2cccc23)ccc1OCCC(C)C [Compound 165]	≤ 2000
COC(C)(C)c1ccc(C(=O)N2CCC3(CC2)Oc2cc(F)ccc2-n2cccc23)cc1C [Compound 166]	≤ 2000
CCn1ncc2c1-c1ccccc1OC21CCN(C(=O)c2ccccc2OC(F)F)CC1 [Compound 167]	≤ 2000
COc1cc(C(=O)N2CCC3(CC2)Oc2cc(F)ccc2-n2cccc23)ccc1C(C)(C)O [Compound 168]	≤ 2000
COc1cc(C(=O)N2CCC3(CC2)Oc2ccccc2-c2c3cnn2C)ccc1OC(F)F [Compound 169]	2000 to 5000
O=C(c1ccc(O[C@@H]2CCOC2)c(C(F)(F)F)c1)N1CCC2(CC1)Oc1ccccc1-n1cccc12 [Compound 170]	≤ 2000
CC(=O)c1ccc2n1-c1ccccc1OC21CCN(C(=O)c2ccc(OC(C)C)c(C)c2)CC1 [Compound 171]	≤ 2000
COC[C@H](C)Oc1ccc(C(=O)N2CCC3(CC2)Oc2cc(Cl)ccc2-n2cccc23)cc1OC [Compound 172]	≤ 2000
Cn1cc2c(n1)-c1ccccc1OC21CCN(C(=O)c2ccc3ncsc3c2)CC1 [Compound 173]	≤ 2000
CC(C)CCOc1ccc(C(=O)N2CCC3(CC2)Oc2ccccc2-c2c3cnn2C)cc1 [Compound 174]	≤ 2000
Cn1cc2c(n1)-c1cc(F)ccc1OC21CCN(C(=O)c2ccccc2OC(F)(F)F)CC1 [Compound 175]	≤ 2000
COc1cc(C(=O)N2CCC3(CC2)Oc2ccccc2-n2c(C(F)(F)F)ccc23)ccc1OCC(N)=O [Compound 176]	≤ 2000
CC(C)Oc1ccc(C(=O)N2CCC3(CC2)Oc2ccc(F)cc2-c2nn(C)cc23)cc1CO [Compound 180]	≤ 2000
COc1ccc(C(=O)N2CCC3(CC2)Oc2ccccc2-n2ccc(C)c23)cc1C(F)(F)F [Compound 181]	≤ 2000
Cn1ncc2c1-c1ccccc1OC21CCN(C(=O)c2ccc3c(c2)CC(C)(C)O3)CC1 [Compound 182]	2000 to 5000

SMILES	IC50 [nM]
CC(C)Oc1ccc(C(=O)N2CCC3(CC2)Oc2ccccc2-c2c3cnn2C)c2ncccc12 [Compound 183]	≤ 2000
O=C(c1ccc(OCCO)cc1)N1CCC2(CC1)Oc1ccccc1-n1cccc12 [Compound 184]	≤ 2000
Cn1ncc2c1-c1ccccc1OC21CCN(C(=O)c2cccc3[nH]ccc23)CC1 [Compound 186]	≤ 2000
COc1ccc(C(=O)N2CCC3(CC2)Oc2ccccc2-c2c3cnn2C)c(OC)c1 [Compound 187]	≤ 2000
Cc1cc(OC(C)C)ccc1C(=O)N1CCC2(CC1)Oc1ccccc1-c1nn(C)cc12 [Compound 188]	≤ 2000
COc1ccc(OC)c(C(=O)N2CCC3(CC2)Oc2cc(Cl)ccc2-n2cccc23)c1 [Compound 189]	≤ 2000
CCCOc1ccc(C(=O)N2CCC3(CC2)Oc2ccccc2-c2c3cnn2C)cc1OC [Compound 190]	≤ 2000
COc1cc(C(=O)N2CCC3(CC2)Oc2ccccc2-n2cccc23)ccc1OCCOC(F)(F)F [Compound 191]	≤ 2000
COC(C)(C)c1ccc(C(=O)N2CCC3(CC2)Oc2cc(Cl)ccc2-n2cccc23)cc1C [Compound 193]	≤ 2000
Cn1ncc2c1-c1ccccc1OC21CCN(C(=O)c2cccc(F)c2OC(F)F)CC1 [Compound 194]	≤ 2000
CS(=O)(=O)c1ccc2n1-c1ccccc1OC21CCN(C(=O)c2ccccc2OC(F)F)CC1 [Compound 195]	≤ 2000
COc1cc(C(=O)N2CCC3(CC2)Oc2cc(F)ccc2-n2cccc23)ccc1OC1CCC(O)C1 (stereo not shown) [Compound 196]	≤ 2000
N#Cc1ccc2n1-c1ccccc1OC21CCN(C(=O)c2ccc(OCCO)cc2)CC1 [Compound 197]	≤ 2000
CCCCc1nc2cc(C(=O)N3CCC4(CC3)Oc3ccccc3-n3c(C(F)(F)F)ccc34)ccc2o1 [Compound 198]	≤ 2000
COc1cc(C(=O)N2CCC3(CC2)Oc2cc(Cl)ccc2-n2cccc23)ccc1OCC(C)(C)OC [Compound 199]	≤ 2000
CCc1ccc(C(=O)N2CCC3(CC2)Oc2cc(F)ccc2-n2cccc23)cc1OC [Compound 200]	≤ 2000
Cc1cc(C(=O)N2CCC3(CC2)Oc2ccccc2-c2c3cnn2C)c(C)cc1OC(C)C [Compound 202]	≤ 2000
COc1cc(C(=O)N2CCC3(CC2)Oc2ccccc2-n2cccc23)ccc1OC[C@@H](C)OC [Compound 203]	≤ 2000
COc1ccc(C(=O)N2CCC3(CC2)Oc2ccccc2-c2c3cnn2C)c(OC(C)C)c1 [Compound 205]	≤ 2000
COc1cc(C(=O)N2CCC3(CC2)Oc2ccccc2-n2c(C#N)ccc23)ccc1O [Compound 206]	≤ 2000

SMILES	IC50 [nM]
CC(C)(C)S(=O)(=O)c1ccsc1C(=O)N1CCC2(CC1)Oc1ccccc1-n1c(C(F)(F)F)ccc12 [Compound 207]	≤ 2000
CC(C)Oc1ccc(C(=O)N2CCC3(CC2)Oc2cc(C#N)ccc2-n2cccc23)cc1 [Compound 208]	≤ 2000
O=C(c1ccc(S(=O)(=O)NC2CC2)cc1)N1CCC2(CC1)Oc1ccccc1-n1cccc12 [Compound 209]	≤ 2000
COCCOc1ccc(C(=O)N2CCC3(CC2)Oc2cc(Cl)ccc2-n2cccc23)cc1C [Compound 211]	≤ 2000
CCOc1ccccc1C(=O)N1CCC2(CC1)Oc1ccccc1-c1c2cnn1C [Compound 212]	≤ 2000
Cc1cc(C(=O)N2CCC3(CC2)Oc2ccc(Cl)cc2-c2c3cnn2C)ccc1OC(C)C [Compound 213]	≤ 2000
O=C(c1cc2occc2[nH]1)N1CCC2(CC1)Oc1ccccc1-n1c(C(F)(F)F)ccc12 [Compound 214]	> 5000
Cc1cc(C(=O)N2CCC3(CC2)Oc2cc(F)ccc2-n2cccc23)ccc1C#N [Compound 215]	≤ 2000
COc1cc(C(=O)N2CCC3(CC2)Oc2cc(Cl)ccc2-n2cccc23)ccc1C(C)(C)O [Compound 216]	≤ 2000
Cc1ccccc1C(=O)N1CCC2(CC1)Oc1ccccc1-c1c2cnn1C [Compound 217]	2000 to 5000
Cn1ncc2c1-c1ccccc1OC21CCN(C(=O)c2cn(C)c3ccccc23)CC1 [Compound 218]	≤ 2000
COCc1ccccc1C(=O)N1CCC2(CC1)Oc1ccccc1-c1c2cnn1C [Compound 219]	≤ 2000
CC(C)(C)c1ccc(C(=O)N2CCC3(CC2)Oc2cc(Cl)ccc2-n2cccc23)cc1C#N [Compound 220]	≤ 2000
Cc1cc(C)cc(C(=O)N2CCC3(CC2)Oc2cc(Cl)ccc2-n2cccc23)c1 [Compound 222]	≤ 2000
COCCOc1ccc(C(=O)N2CCC3(CC2)Oc2ccccc2-n2c(C(F)(F)F)ccc23)cc1OC [Compound 223]	≤ 2000
Cc1nc2cccc(C(=O)N3CCC4(CC3)Oc3ccccc3-c3c4cnn3C)c2o1 [Compound 224]	≤ 2000
COc1ccc(C(=O)N2CCC3(CC2)Oc2ccccc2-c2c3cnn2C)cc1Cl [Compound 227]	2000 to 5000
COc1cc(C(=O)N2CCC3(CC2)Oc2cc(F)ccc2-n2cccc23)ccc1OC[C@H]1COC(C)(C)O1 [Compound 228]	≤ 2000
